Results published in US20250171465A1, “AKT INHIBITORS” (Stablix, Inc., priority 2023, published 2025).

Experiments:
Type in all cases: cell-based
[1] = test system: KU1919.1; assay: Cell Titer Glo (CTG) proliferation assay, KU1919; details: Homo sapiens, KU-19-19; KU1919.1 cells, 72.0 hrs.; read-out: AVE CTG Proliferation KU1919.1 72.0 hrs.
In short: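 After overnight seeding at 37 °C, 5% CO2, cells were exposed to compound for 3 days. Viability read by CellTiter-Glo luminescence after 30 min at room temperature.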

[2] = test system: MDAMB468.1; assay: Cell Titer Glo (CTG) proliferation assay, MDA-MB-468; details: Homo sapiens, MDA-MB-468; MDAMB468.1 cells, 72.0 hrs.; read-out: AVE CTG Proliferation MDAMB468.1 72.0 hrs.
Method: (§1) Seed cells in 40 μL of cell culture media into each well of 384-well cell culture plate, spin them at room temperature at 1,000 RPM for 1 minute and then transfer the plates into 37° C. 5% CO2 incubator overnight. Next day, treat cells with 40 nL of diluted compound and return to incubator. After compound treatment for 3 days, Add 30 μL of CellTiter-Glo reagent (Promega) into each well to be detected. Then place the plates at room temperature for 30 min followed by reading on EnVision. Inhibition activity calculated as % DMSO=100×(LumSample-Lum low control)/(Lum high control-Lum low control) where high control is from cells treated with 0.1% DMSO and Low control obtained from PBS only. Use XLFit (equation 201) to calculate IC50 (A+ ((B−A)/(1[…]((x/C)^D)))) where A: Bottom, B: Top, C: IC50, D: Slope.

[3] = test system: MDAMB231.1; assay: Cell Titer Glo (CTG) proliferation assay, MDA-MB-231; details: Homo sapiens, MDA-MB-231; MDAMB231.1 cells, 72 hrs.; read-out: AVE CTG Proliferation MDAMB231.1 72 hrs.
Method: as §1

Row | SMILES | IC50 [2] [µM] | IC50 [3] [µM] | IC50 [1] [µM]
1 | CCc1cccc(-c2cnc(C(=O)N3CCC(OC4CCN(CC(=O)NCCNC[C@@H](C(=O)N5CCN(c6ncnc7c6[C@H](C)C[C@H]7O)CC5)c5ccc(Cl)cc5)CC4)CC3)c(NC(C)=O)c2)c1 [Compound I-196] | 5 to 10 | 5 to 10 | 1 to 5
2 | C[C@@H]1C[C@@H](O)c2ncnc(N3CCN(C(=O)C(CN4CCC(CN5CCN(C(=O)[C@H](NC(=O)c6cccc([C@H]7CCCN(C(=O)CNCc8ccc(F)cc8F)C7)c6)C6CCCCC6)CC5)CC4)c4ccc(Cl)cc4)CC3)c21 (stereo partly drawn) [Compound I-201] | 1 to 5 | 1 to 5 | 0.5 to 1
3 | C[C@@H]1C[C@@H](O)c2ncnc(N3CCN(C(=O)[C@H](CNCCNC(=O)CN4CCC(CN5CCN(C(=O)[C@H](NC(=O)c6cccc(C7CCCN(C(=O)CNCc8ccc(F)cc8F)C7)c6)C6CCCCC6)CC5)CC4)c4ccc(Cl)cc4)CC3)c21 (stereo partly drawn) [Compound I-204] | 1 to 5 | 1 to 5 | 1 to 5
4 | C[C@@H]1C[C@@H](O)c2ncnc(N3CCN(C(=O)[C@H](CNCCNC(=O)CN4CCC(CN5CCN(C(=O)c6cccc(C7CCCN(C(=O)CNC8CC8)C7)c6)CC5)CC4)c4ccc(Cl)cc4)CC3)c21 (stereo partly drawn) [Compound I-206] | > 10 | > 10 | > 10
5 | C[C@@H]1C[C@@H](O)c2ncnc(N3CCN(C(=O)[C@H](CNCCNC(=O)CN4CCC(CN5CCN(C(=O)c6cccc(C7CCCN(C(=O)CNCc8ccc(F)cc8F)C7)c6)CC5)CC4)c4ccc(Cl)cc4)CC3)c21 (stereo partly drawn) [Compound I-207] | > 10 | > 10 | > 10
6 | C[C@@H]1C[C@@H](O)c2ncnc(N3CCN(C(=O)[C@H](CNCCNC(=O)CN4CCC(OC5CCN(C(=O)[C@H](NC(=O)c6cccc(C7CCCN(C(=O)CNCc8ccc(F)cc8F)C7)c6)C6CCCCC6)CC5)CC4)c4ccc(Cl)cc4)CC3)c21 (stereo partly drawn) [Compound I-208] | 1 to 5 | 1 to 5 | 1 to 5
7 | C[C@@H]1C[C@@H](O)c2ncnc(N3CCN(C(=O)[C@H](CNCCNC(=O)CN4CCC(OC5CCN(C(=O)[C@H](NC(=O)c6cccc(C7CCCN(C(=O)CNC8CC8)C7)c6)C6CCCCC6)CC5)CC4)c4ccc(Cl)cc4)CC3)c21 (stereo partly drawn) [Compound I-209] | 5 to 10 | 5 to 10 | 5 to 10
8 | C[C@@H]1C[C@@H](O)c2ncnc(N3CCN(C(=O)C(CN4CCC(CN5CCN(C(=O)[C@H](NC(=O)c6cccc([C@H]7CCCN(C(=O)CNC8CC8)C7)c6)C6CCCCC6)CC5)CC4)c4ccc(Cl)cc4)CC3)c21 (stereo partly drawn) [Compound I-211] | 1 to 5 | 1 to 5 | 0.5 to 1
9 | CCc1cccc(-c2cnc(C(=O)N3CCN(CC4CCN(CC(=O)NCCNC[C@@H](C(=O)N5CCN(c6ncnc7c6[C@H](C)C[C@H]7O)CC5)c5ccc(Cl)cc5)CC4)CC3)c(N)c2)c1 [Compound I-213] | 1 to 5 | 1 to 5 | 1 to 5
10 | CCOc1cc(OC)ccc1CNCC(=O)N1CCC[C@H](c2cccc(C(=O)N[C@@H](C(=O)N3CCN(CC4CCN(CC(C(=O)N5CCN(c6ncnc7c6[C@H](C)C[C@H]7O)CC5)c5ccc(Cl)cc5)CC4)CC3)C3CCCCC3)c2)C1 (stereo partly drawn) [Compound I-219] | 1 to 5 | 1 to 5 | 0.5 to 1
11 | NC1(C(=O)N[C@@H](CCN2CCN(C(=O)CN3CCC(OC4CCN(C(=O)[C@H](NC(=O)c5cc(C6CN(C(=O)CNCc7ccc(F)cc7F)C6)ccc5F)C5CCCCC5)CC4)CC3)CC2)c2ccc(Cl)cc2)CCN(c2ncnc3[nH]ccc23)CC1 [Compound I-226] | 1 to 5 | 1 to 5 | 0.5 to 1
12 | NC1(C(=O)N[C@@H](CCN2CCN(C(=O)CN3CCC(OC4CCN(C(=O)[C@H](NC(=O)c5ccc(C6CN(C(=O)CNCc7ccc(F)cc7F)C6)cc5)C5CCCCC5)CC4)CC3)CC2)c2ccc(Cl)cc2)CCN(c2ncnc3[nH]ccc23)CC1 [Compound I-230] | 1 to 5 | 1 to 5 | 1 to 5
13 | N[C@@H](C(=O)N1CCC(OC2CCN(CC(=O)N3CCN(CC[C@H](NC(=O)C4(N)CCN(c5ncnc6[nH]ccc56)CC4)c4ccc(Cl)cc4)CC3)CC2)CC1)C1CCCCC1 [Compound I-235] | > 10 | > 10 | > 10
14 | NC1(C(=O)N[C@@H](CCN2CCC(OC3CCN(C(=O)c4cccc(C5CCCN(C(=O)C6CC6)C5)c4)CC3)CC2)c2ccc(Cl)cc2)CCN(c2ncnc3[nH]ccc23)CC1 (stereo partly drawn) [Compound I-248] | 5 to 10 | 5 to 10 | 1 to 5
15 | NC1(C(=O)N[C@@H](CCN2CCN(C(=O)CN3CCC(OC4CCN(C(=O)[C@H](NC(=O)c5cccc(C6CCCN(C(=O)CNCc7ccc(F)cc7F)C6)c5)C5CCCCC5)CC4)CC3)CC2)c2ccc(Cl)cc2)CCN(c2ncnc3[nH]ccc23)CC1 (stereo partly drawn) [Compound I-258] | 1 to 5 | 1 to 5 | 0.5 to 1
16 | CCc1cccc(-c2cc(F)c(C(=O)N3CCC(OC4CCN(CC(=O)NCCNC[C@@H](C(=O)N5CCN(c6ncnc7c6[C@H](C)C[C@H]7O)CC5)c5ccc(Cl)cc5)CC4)CC3)c(F)c2)c1 [Compound I-261] | 1 to 5 | 1 to 5 | 1 to 5
17 | CCc1cccc(-c2cc(F)c(C(=O)N3CCN(CC4CCN(CC(C(=O)N5CCN(c6ncnc7c6[C@H](C)C[C@H]7O)CC5)c5ccc(Cl)cc5)CC4)CC3)c(F)c2)c1 (stereo partly drawn) [Compound I-262] | 1 to 5 | 1 to 5 | 0.5 to 1
18 | C[C@@H]1C[C@@H](O)c2ncnc(N3CCN(C(=O)C(CN4CCC(CN5CCN(C(=O)[C@H](NC(=O)c6cccc([C@H]7CCCN(C(=O)C8CC8)C7)c6F)C6CCCCC6)CC5)CC4)c4ccc(Cl)cc4)CC3)c21 (stereo partly drawn) [Compound I-277] | < 0.5 | < 0.5 | < 0.5
19 | C[C@@H]1C[C@@H](O)c2ncnc(N3CCN(C(=O)C(CN4CCC(CN5CCN(C(=O)[C@H](NC(=O)c6cccc([C@@H]7CCCN(C(=O)C8CC8)C7)c6F)C6CCCCC6)CC5)CC4)c4ccc(Cl)cc4)CC3)c21 (stereo partly drawn) [Compound I-278] | 1 to 5 | 1 to 5 | 0.5 to 1
20 | NC1(C(=O)N[C@@H](CCN2CCC(OC3CCN(C(=O)c4c(F)cc(-c5ccccc5)cc4F)CC3)CC2)c2ccc(Cl)cc2)CCN(c2ncnc3[nH]ccc23)CC1 [Compound I-281] | 1 to 5 | < 0.5 | 1 to 5

More lines, main results first:

Row | IC50 [2] [µM] | IC50 [3] [µM] | SMILES | IC50 [1] [µM]
21 | 1 to 5 | 1 to 5 | NC1(C(=O)N[C@@H](CCN2CCN(C(=O)CN3CCC(OC4CCN(C(=O)[C@H](NC(=O)c5cc(C6CCCN(C(=O)C7CC7)C6)ccc5F)C5CCCCC5)CC4)CC3)CC2)c2ccc(Cl)cc2)CCN(c2ncnc3[nH]ccc23)CC1 (stereo partly drawn) [Compound I-224] | 1 to 5
22 | 1 to 5 | 1 to 5 | NC1(C(=O)N[C@@H](CCN2CCN(C(=O)CN3CCC(OC4CCN(C(=O)[C@H](NC(=O)c5cc(C6CN(C(=O)C7CC7)C6)ccc5F)C5CCCCC5)CC4)CC3)CC2)c2ccc(Cl)cc2)CCN(c2ncnc3[nH]ccc23)CC1 [Compound I-227] | 1 to 5
23 | 1 to 5 | 1 to 5 | NC1(C(=O)N[C@@H](CCN2CCN(C(=O)CN3CCC(OC4CCN(C(=O)[C@H](NC(=O)c5cccc(C6CN(C(=O)C7CC7)C6)c5)C5CCCCC5)CC4)CC3)CC2)c2ccc(Cl)cc2)CCN(c2ncnc3[nH]ccc23)CC1 [Compound I-240] | 1 to 5
24 | 1 to 5 | 5 to 10 | NC1(C(=O)N[C@@H](CCN2CCN(C(=O)CN3CCC(OC4CCN(C(=O)[C@H](NC(=O)c5cccc(C6CN(C(=O)CNC7CC7)C6)c5)C5CCCCC5)CC4)CC3)CC2)c2ccc(Cl)cc2)CCN(c2ncnc3[nH]ccc23)CC1 [Compound I-241] | 1 to 5
25 | 5 to 10 | > 10 | NC1(C(=O)N[C@@H](CCN2CCC(OC3CCN(C(=O)c4cccc(C5CCCN(C(=O)CNC6CC6)C5)c4)CC3)CC2)c2ccc(Cl)cc2)CCN(c2ncnc3[nH]ccc23)CC1 (stereo partly drawn) [Compound I-252] | 5 to 10
26 | 1 to 5 | 1 to 5 | NC1(C(=O)N[C@@H](CCN2CCN(C(=O)CN3CCC(OC4CCN(C(=O)[C@H](NC(=O)c5cccc(C6CCCN(C(=O)CNC7CC7)C6)c5)C5CCCCC5)CC4)CC3)CC2)c2ccc(Cl)cc2)CCN(c2ncnc3[nH]ccc23)CC1 (stereo partly drawn) [Compound I-259] | 1 to 5
27 | 1 to 5 | 1 to 5 | NC1(C(=O)N[C@@H](CCN2CCC(OC3CCN(C(=O)[C@H](NC(=O)c4cccc(C5CCCN(C(=O)CNCc6ccc(F)cc6F)C5)c4F)C4CCCCC4)CC3)CC2)c2ccc(Cl)cc2)CCN(c2ncnc3[nH]ccc23)CC1 (stereo partly drawn) [Compound I-279] | 0.5 to 1
28 | 1 to 5 | 1 to 5 | CC1(C(=O)N2CCCC(c3cccc(C(=O)N[C@@H](C(=O)N4CCC(OC5CCN(CC[C@H](NC(=O)C6(N)CCN(c7ncnc8[nH]ccc78)CC6)c6ccc(Cl)cc6)CC5)CC4)C4CCCCC4)c3F)C2)CC1 (stereo partly drawn) [Compound I-282] | 1 to 5
29 | 1 to 5 | 1 to 5 | NC1(C(=O)N[C@@H](CCN2CCC(OC3CCN(C(=O)[C@H](NC(=O)c4cccc(C5CCCN(C(=O)CNC6CC6)C5)c4F)C4CCCCC4)CC3)CC2)c2ccc(Cl)cc2)CCN(c2ncnc3[nH]ccc23)CC1 (stereo partly drawn) [Compound I-283] | 1 to 5
